In US6894075B2, “4′-demethyl-4′-O-substituted-1-deoxypodophyllotoxin derivative and geometric isomer thereof, process for the preparation thereof and anti-cancer composition comprising the same” (priority 2000, dated 2005):

Assays:
A549 cell = experiment: Cytotoxicity test (SRB method) for A549 cells; type: cell-based, human; conditions: A549, SRB, 48 hours incubation, Table 2
Description: (§1) Human lung carcinomas A549 and […] were used for determining cytotoxicity of the compounds of the present invention according to the Sulfrhodamine-B (SRB) method which was developed by NCI in 1989 in order to determine in vitro anticancer activity of drugs.
(§2) Cells to be used in the experiment were separated from a surface using 0.5% Trypsin-EDTA solution and suspended in a density of 5×10^4 cell/ml therein. The cell suspension was introduced into a 96-well plate in an amount of 180/well and incubated for 24 hours in a 5% CO2 incubator of 37° C. Samples were dissolved in dimethylsulfoxide and then diluted by water distilled in advance for three times just before the experiment. Forty-one (41) samples were prepared into 4 types of final concentrations, i.e., 0.1, 0.03, 0.01 and 0.003 mg per ml of the medium. The diluted sample solutions were added to the 96-well plate in the amount of 20 μl/well and incubated for 48 hours in a CO2 incubator of 37° C. At the time of adding the samples, Tz (Time zero) plate was taken. The medium was removed from the Tz plate and each of the plates after incubation were completed. Ten (10)% […] (TCA) was added in the amount of […], and allowed to stand for 1 hour at 4° C. to fix the cells on the bottom surface of the plate. After the cells were fixed, the plate was washed five to six times with water to completely remove the remaining TCA solution and then dried at room temperature to completely remove the moisture. To the fully dried plate was introduced a dye solution in the amount of […] in which 0.4% SRB was dissolved in 1% acetic acid solution. […] After the dyeing process, the plate was dried again at room temperature. 100 ml of 10 mM Tris solution was added thereto in order to dissolve the dye, and then O.D. (optical density) was determined by microplate reader at 520 nm.
(§3) ED50 values for cancer cells were calculated as follows. The amount of SRB protein was analyzed at the time when incubation started by the addition of the sample. This amount was named time zero (Tz). The O.D. value obtained from a group which was not treated by the sample was named Control group (C) and the O.D. value obtained from a group which was treated by the sample was named Test group (T).
(§4) The degree of cytotoxicity of the compounds was calculated from Tz, C and T values according to the following equation.
(§5) That is, in the case of Tz≧T, the degree was calculated by
(§6) (T−Tz)/(C−Tz)×100(%), and
(§7) • in the case of Tz<T, the degree was calculated by […].
(§8) From the values thus obtained, ED50 value which is defined as the concentration at which growth of the cancer cell is inhibited by 50% was calculated using the regression function of Excel program.

SK-MEL-2 cell = experiment: Cytotoxicity test (SRB method) for SK-MEL-2 cells; type: cell-based, human; conditions: SK-MEL-2, SRB, 48 hours incubation
Description: as §1, §2, §3, §4, §5, §6, §7, §8

Compound	ED50(mg/mL) for A549 (A549 cell)	ED50(mg/mL) for SK-MEL-2 (SK-MEL-2 cell)
CCCCCCCCCCCCCC(=O)Oc1c(OC)cc(C2c3cc4c(cc3CC3COC(=O)C32)OCO4)cc1OC (stereo not drawn) [Compound 1c-12, 4′-demethyl-4′-O-tetradecanoyl-1-deoxypodophyllotoxin]	0.041 mg/mL	0.050 mg/mL
CCCCCCCCCCCCCCCC(=O)Oc1c(OC)cc(C2c3cc4c(cc3CC3COC(=O)C32)OCO4)cc1OC (stereo not drawn) [Compound 1c-13, 4′-demethyl-4′-O-hexadecanoyl-1-deoxypodophyllotoxin]	0.268 mg/mL	0.290 mg/mL
CCCCCC/C=C\CCCCCCCC(=O)Oc1c(OC)cc(C2c3cc4c(cc3CC3COC(=O)C32)OCO4)cc1OC (stereo not drawn) [Compound 1c-14, 4′-demethyl-4′-O-(cis-9′-hexadecenoyl)-1-deoxypodophyllo-toxin]	0.733 mg/mL	0.065 mg/mL
CCCCCCCCCCCCCCCCCC(=O)Oc1c(OC)cc(C2c3cc4c(cc3CC3COC(=O)C32)OCO4)cc1OC (stereo not drawn) [Compound 1c-15, 4′-demethyl-4′-O-octadecanoyl-1-deoxypodophyllotoxin]	2.670 mg/mL	>5 mg/mL
CCCCCCCC/C=C\CCCCCCCC(=O)Oc1c(OC)cc(C2c3cc4c(cc3CC3COC(=O)C32)OCO4)cc1OC (stereo not drawn) [Compound 1c-16, 4′-demethyl-4′-O-(cis-9′-octadecenoyl)-1-deoxypodophyllo-toxin]	0.179 mg/mL	0.159 mg/mL
CCCCCCCC/C=C/CCCCCCCC(=O)Oc1c(OC)cc(C2c3cc4c(cc3CC3COC(=O)C32)OCO4)cc1OC (stereo not drawn) [Compound 1c-17, 4′-demethyl-4′-O-(trans-9′-octadecenoyl)-1-deoxypodophyllo-toxin]	0.367 mg/mL	0.550 mg/mL
CCCCCC/C=C\CCCCCCCCCC(=O)Oc1c(OC)cc(C2c3cc4c(cc3CC3COC(=O)C32)OCO4)cc1OC (stereo not drawn) [Compound 1c-18, 4′-demethyl-4′-O-(cis-11′-octadecenoyl)-1-deoxypodophyllo-toxin]	0.335 mg/mL	0.057 mg/mL
CCCCCC/C=C/CCCCCCCCCC(=O)Oc1c(OC)cc(C2c3cc4c(cc3CC3COC(=O)C32)OCO4)cc1OC (stereo not drawn) [Compound 1c-19, 4′-demethyl-4′-O-(trans-11′-octadecenoyl)-1-deoxypodophyllo-toxin]	1.010 mg/mL	0.253 mg/mL
CCCCC/C=C\C/C=C\CCCCCCCC(=O)Oc1c(OC)cc(C2c3cc4c(cc3CC3COC(=O)C32)OCO4)cc1OC (stereo not drawn) [Compound 1c-20, 4′-demethyl-4′-O-(cis-9′,12′-octadecadienoyl)-1-deoxypodophyllo-toxin]	0.090 mg/mL	0.030 mg/mL
CCCCC/C=C/C/C=C/CCCCCCCC(=O)Oc1c(OC)cc(C2c3cc4c(cc3CC3COC(=O)C32)OCO4)cc1OC (stereo not drawn) [Compound 1c-21, 4′-demethyl-4′-O-(trans-9′,12′-octadecadienoyl)-1-deoxypodophyllo-toxin]	0.259 mg/mL	0.110 mg/mL
CC/C=C\C/C=C\C/C=C\CCCCCCCC(=O)Oc1c(OC)cc(C2c3cc4c(cc3CC3COC(=O)C32)OCO4)cc1OC (stereo not drawn) [Compound 1c-22, 4′-demethyl-4′-O-(cis-9′,12′,15′-octadecatrienoyl)-1-deoxypodophyllotoxin]	0.084 mg/mL	0.048 mg/mL
CCCCC/C=C\C/C=C\C/C=C\CCCCC(=O)Oc1c(OC)cc(C2c3cc4c(cc3CC3COC(=O)C32)OCO4)cc1OC (stereo not drawn) [Compound 1c-23, 4′-demethyl-4′-O-(cis-6′,9′,12′-octadecatrienoyl)-1-deoxypodophyllotoxin]	0.085 mg/mL	0.041 mg/mL
CCCCCCCCCCCCCCCCCCCC(=O)Oc1c(OC)cc(C2c3cc4c(cc3CC3COC(=O)C32)OCO4)cc1OC (stereo not drawn) [Compound 1c-24, 4′-demethyl-4′-O-eicosanoyl-1-deoxypodophyllotoxin]	>5 mg/mL	>5 mg/mL
CCCCCCCC/C=C\CCCCCCCCCC(=O)Oc1c(OC)cc(C2c3cc4c(cc3CC3COC(=O)C32)OCO4)cc1OC (stereo not drawn) [Compound 1c-25, 4′-demethyl-4′-O-(cis-11′-eicosenoyl)-1-deoxypodophyllotoxin]	>5 mg/mL	>5 mg/mL
CCCCCCCC/C=C/CCCCCCCCCC(=O)Oc1c(OC)cc(C2c3cc4c(cc3CC3COC(=O)C32)OCO4)cc1OC (stereo not drawn) [Compound 1c-26, 4′-demethyl-4′-O-(trans-11′-eicosenoyl)-1-deoxypodophyllotoxin]	1.660 mg/mL	1.130 mg/mL
CCCCC/C=C\C/C=C\CCCCCCCCCC(=O)Oc1c(OC)cc(C2c3cc4c(cc3CC3COC(=O)C32)OCO4)cc1OC (stereo not drawn) [Compound 1c-27, 4′-demethyl-4′-O-(cis-11′,14′-eicosadienoyl)-1-deoxypodophyllotoxin]	0.870 mg/mL	0.347 mg/mL
CCCCC/C=C\C/C=C\C/C=C\C/C=C\CCCC(=O)Oc1c(OC)cc(C2c3cc4c(cc3CC3COC(=O)C32)OCO4)cc1OC (stereo not drawn) [Compound 1c-28, 4′-demethyl-4′-O-(cis-5′,8′,11′,14′-eicosatetraenoyl)-1-deoxypodophyllotoxin]	0.910 mg/mL	0.184 mg/mL
CCCCCCCCCCCCCCCCCCCCCC(=O)Oc1c(OC)cc(C2c3cc4c(cc3CC3COC(=O)C32)OCO4)cc1OC (stereo not drawn) [Compound 1c-29, 4′-demethyl-4′-O-docosanoyl-1-deoxypodophyllotoxin]	>5 mg/mL	>5 mg/mL
CCCCCCCC/C=C\CCCCCCCCCCCC(=O)Oc1c(OC)cc(C2c3cc4c(cc3CC3COC(=O)C32)OCO4)cc1OC (stereo not drawn) [Compound 1c-30, 4′-demethyl-4′-O-(cis-13′-docosenoyl)-1-deoxypodophyllotoxin]	2.710 mg/mL	0.561 mg/mL
CC/C=C\C/C=C\C/C=C\C/C=C\C/C=C\C/C=C\CCC(=O)Oc1c(OC)cc(C2c3cc4c(cc3CC3COC(=O)C32)OCO4)cc1OC (stereo not drawn) [Compound 1c-31, 4′-demethyl-4′-O-(cis-4′,7′,10′,13′,16′,19′-docohexaenoyl)-1-deoxypodophyllotoxin]	0.119 mg/mL	0.035 mg/mL
COc1cc(C2c3cc4c(cc3CC3COC(=O)C32)OCO4)cc(OC)c1OC(=O)/C=C(C)/C=C/C=C(C)/C=C/C1=C(C)CCCC1(C)C (stereo not drawn) [Compound 1c-32, 4′-demethyl-4′-O-retinoyl-1-deoxypodophyllotoxin]	2.130 mg/mL	0.387 mg/mL
COc1cc(C2c3cc4c(cc3CC3COC(=O)C32)OCO4)cc(OC)c1OC(=O)CCCCC(=O)O (stereo not drawn) [Compound 1c-33, 4′-demethyl-4′-O-(5′-carboxy-pentanoyl)-1-deoxypodophyllotoxin]	0.258 mg/mL	0.062 mg/mL
COc1cc(C2c3cc4c(cc3CC3COC(=O)C32)OCO4)cc(OC)c1OC(=O)CCCCCCC(=O)O (stereo not drawn) [Compound 1c-34, 4′-demethyl-4′-O-(7′-carboxy-heptanoyl)-1-deoxypodophyllotoxin]	0.175 mg/mL	0.066 mg/mL
COc1cc(C2c3cc4c(cc3CC3COC(=O)C32)OCO4)cc(OC)c1OC(=O)CCCCCCCCC(=O)O (stereo not drawn) [Compound 1c-35, 4′-demethyl-4′-O-(9′-carboxy-nonanoyl)-1-deoxypodophyllotoxin]	0.014 mg/mL	0.015 mg/mL
